Measurements published in paper PMC5589751, “Synthesis, high-throughput screening and pharmacological characterization of β–lactam derivatives as TRPM8 antagonists” (Scientific Reports, 2017).
Where “and” joins values, the source holds several entries; their conditions need not be identical. Equal entries are not always repeated.

How the values were obtained:
[1] = target: T1, TRPM8 (Rattus norvegicus, UniProt Q8R455); assay: Ca2+ microfluorography (Fluo-4 NW), menthol-induced Ca2+ signal in HEK-CR1-TRPM8 cells; assay type: cell-based; settings: for % Block TRPM8 50 µM: 50 µM compound; for % Block TRPM8 50 µM / IC50: agonist 100 µM menthol, HEK-CR1-TRPM8 cells
T1 construct: expressed in transfected cells
T1 sequence (Q8R455 whole entry): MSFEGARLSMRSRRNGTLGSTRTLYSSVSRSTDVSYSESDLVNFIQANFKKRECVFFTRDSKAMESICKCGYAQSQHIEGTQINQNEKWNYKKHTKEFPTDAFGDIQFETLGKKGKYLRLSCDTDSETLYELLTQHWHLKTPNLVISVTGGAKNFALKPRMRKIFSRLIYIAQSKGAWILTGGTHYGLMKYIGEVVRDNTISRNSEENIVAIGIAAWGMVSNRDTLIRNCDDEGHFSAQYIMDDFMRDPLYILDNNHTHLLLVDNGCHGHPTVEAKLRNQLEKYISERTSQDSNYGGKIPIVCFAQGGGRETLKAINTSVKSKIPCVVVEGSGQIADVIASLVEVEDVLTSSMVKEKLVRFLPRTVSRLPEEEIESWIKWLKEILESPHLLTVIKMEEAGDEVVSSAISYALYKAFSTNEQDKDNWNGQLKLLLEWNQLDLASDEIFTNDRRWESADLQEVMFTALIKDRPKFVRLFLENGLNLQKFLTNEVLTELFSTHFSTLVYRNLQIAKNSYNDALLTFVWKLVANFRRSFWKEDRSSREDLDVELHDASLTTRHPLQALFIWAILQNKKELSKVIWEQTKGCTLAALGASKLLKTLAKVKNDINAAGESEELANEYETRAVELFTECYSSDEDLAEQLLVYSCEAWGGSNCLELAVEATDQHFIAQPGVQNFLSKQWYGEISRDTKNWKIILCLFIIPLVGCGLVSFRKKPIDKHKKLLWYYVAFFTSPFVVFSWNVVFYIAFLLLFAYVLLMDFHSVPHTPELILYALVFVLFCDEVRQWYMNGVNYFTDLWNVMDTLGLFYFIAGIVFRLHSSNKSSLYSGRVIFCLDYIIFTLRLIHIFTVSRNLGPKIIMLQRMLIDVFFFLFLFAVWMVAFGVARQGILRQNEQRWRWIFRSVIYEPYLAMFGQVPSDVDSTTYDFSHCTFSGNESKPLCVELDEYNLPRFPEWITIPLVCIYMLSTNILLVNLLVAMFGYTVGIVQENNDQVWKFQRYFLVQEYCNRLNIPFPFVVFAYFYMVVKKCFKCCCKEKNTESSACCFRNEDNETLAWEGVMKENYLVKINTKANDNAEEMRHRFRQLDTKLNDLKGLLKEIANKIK
Procedure: (§1) All compounds were tested at two different concentrations (50 and 5 µM) on TRPM8 and TRPV1 channels stably expressed in HEK and SH-SY5Y cell lines, respectively. The agonist induced intracellular Ca^2+ signals were measured using a fluorescent Ca^2+ indicator, in the absence and in the presence of test compounds. […] The obtained results were compared to those of 68 (AMTB, TRPM8 antagonist) and ruthenium red (TRPV1 antagonist). The IC50 values for the assay on TRPM8 were also calculated.
(§2) For fluorescence assays, cells expressing TRP channels (SH-SY5Y-TRPV1 and HEKCR1-TRPM8) were seeded in 96-well plates (Corning Incorporated, Corning, NY) at a cell density of 40,000 cells 2 days before treatment. The day of treatment the medium was replaced with 100 µL of the dye loading solution Fluo-4 NW supplemented with probenecid 2.5 mM. Then the compounds dissolved in DMSO were added at the desired concentrations and the plate(s) were incubated at 37 °C in a humidified atmosphere of 5% CO2 for 60 minutes.
(§3) The fluorescence was measured using instrument settings appropriate for excitation at 485 nm and emission at 535 nm (POLARstar Omega BMG LABtech). […] The corresponding antagonist
(§4) (10 µM Ruthenium Red forTRPV1 and 10 µM 68 for TRPM8) was added for the blockade. The changes in fluorescence intensity were recorded during 15 cycles more. […] The blocking percentage was calculated as follow (Eq. 1):1 %TRPBlockedResponse=(1−Fo−Fi/FCo−FCi)∗100 where Fo is the fluorescence after the addition of menthol in the presence of the compound, Fi is the fluorescence before the addition of menthol in the presence of the compound, FCo is the fluorescence after the addition of menthol in the absence of the compound, FCi is the fluorescence before the addition of menthol in the absence of the compound. To guarantee that our results were useful we only used assays with a Z-factor higher than 0.5.
(§5) The statistical Z-factor to determine the quality of the HTS experiment as was calculated using the equation 2:2 Z‐factor=1−3∗(SDmax+SDmin)/Meanmax−Meanmin where: Meanmax is the mean of the maximum fluorescence in the presence of agonist, SDmax is the standard deviation of the maximum fluorescence in the presence of agonists, Meanmin is the mean of the maximum fluorescence in the presence of agonist and antagonist and SDmin is the standard deviation of the maximum fluorescence in the presence of agonist and antagonist.

[2] = target: TRPV1 (Rattus norvegicus, UniProt O35433); assay: Ca2+ microfluorography (Fluo-4 NW), capsaicin-induced Ca2+ signal in SH-SY5Y-TRPV1 cells; assay type: cell-based; settings: for % Block TRPV1 50 µM: 50 µM compound, agonist 10 µM capsaicin, SH-SY5Y-TRPV1 cells
Sequence of TRPV1 (O35433 whole entry): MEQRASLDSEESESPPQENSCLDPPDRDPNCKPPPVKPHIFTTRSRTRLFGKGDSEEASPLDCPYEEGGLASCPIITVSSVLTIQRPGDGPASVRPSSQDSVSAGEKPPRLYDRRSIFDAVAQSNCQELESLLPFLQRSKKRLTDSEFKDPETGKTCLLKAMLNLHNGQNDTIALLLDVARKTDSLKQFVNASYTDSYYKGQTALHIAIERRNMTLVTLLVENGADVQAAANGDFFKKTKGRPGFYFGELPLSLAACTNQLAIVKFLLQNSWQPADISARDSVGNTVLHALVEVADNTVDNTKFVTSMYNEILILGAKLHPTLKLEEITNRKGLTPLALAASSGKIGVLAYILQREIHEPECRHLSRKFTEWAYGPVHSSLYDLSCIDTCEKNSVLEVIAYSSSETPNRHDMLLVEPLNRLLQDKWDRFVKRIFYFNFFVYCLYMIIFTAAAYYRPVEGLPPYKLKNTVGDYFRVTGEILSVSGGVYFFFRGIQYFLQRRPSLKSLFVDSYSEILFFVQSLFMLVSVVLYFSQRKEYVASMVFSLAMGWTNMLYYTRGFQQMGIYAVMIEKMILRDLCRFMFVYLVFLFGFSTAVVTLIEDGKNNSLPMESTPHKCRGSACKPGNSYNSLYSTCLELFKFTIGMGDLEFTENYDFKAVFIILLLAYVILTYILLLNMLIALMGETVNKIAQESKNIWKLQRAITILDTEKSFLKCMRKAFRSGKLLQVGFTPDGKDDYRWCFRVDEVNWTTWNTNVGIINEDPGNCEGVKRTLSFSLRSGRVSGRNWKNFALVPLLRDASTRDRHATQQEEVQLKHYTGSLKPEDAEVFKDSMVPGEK
Procedure: as §1, §2, §3, §4, §5

[3] = Kinetic solubility; assay type: physicochemical

SMILES	% Block TRPM8 50 µM [1]	IC50 [1] [µM]	% Block TRPV1 50 µM [2] [%]	also measured
COC(=O)C1(C)CC(=O)N1CC[C@H](NC(=O)OC(C)(C)C)C(=O)OCc1ccccc1 (stereo partly drawn) [Compound 43]	80.5 ± 15.8%	36.8 ± 3.1		
COC(=O)C1(C)CC(=O)N1CCC(NC(=O)OCc1ccccc1)C(=O)OC(C)(C)C (stereo not drawn) [Compound 44]	21.3 ± 9.8%	339.8 ± 1.4	26.8 ± 4.8	
COC(=O)[C@H](C)NC(=O)[C@H](CCN1C(=O)C[C@@]1(Cc1ccccc1)C(=O)N[C@@H](C)C(=O)OC)NC(=O)OC(C)(C)C [Compound 57b]	44.0 ± 16.5%	70.4 ± 1.6		
COC(=O)[C@H](C)NC(=O)C1(Cc2ccccc2)CC(=O)N1CCC[C@H](NC(=O)OCc1ccccc1)C(=O)OC (stereo partly drawn) [Compound 58]	50.7 ± 9.5%	48.4 ± 18.6	18.3 ± 16.2	
CC(C)(C)OC(=O)N[C@@H](CCN1C(=O)C[C@]1(Cc1ccccc1)C(=O)NCc1ccccc1)C(=O)NCc1ccccc1 [Compound 62a]	70.0 ± 18.6%	7.1 ± 0.3	42.5 ± 16.2	Kinetic solubility ([3]; 1% DMSO): 63 µM and 38 mg/L; Kinetic solubility ([3]; 5% DMSO): 92 µM and 55 mg/L
CC(C)(C)OC(=O)NC(CCCN1C(=O)CC1(Cc1ccccc1)C(=O)NCc1ccccc1)C(=O)NCc1ccccc1 (stereo not drawn) [Compound 64]	70.4 ± 15.2%	11.5 ± 2.7	26.9 ± 9.2	
CC(C)(C)OC(=O)NC(CCN1C(=O)CC1(Cc1ccccc1)C(=O)Nc1cccnc1)C(=O)Nc1cccnc1 (stereo not drawn) [Compound 66]	64.6 ± 13.2%	5.7 ± 3.4	22.8 ± 3.7	Kinetic solubility ([3]; 1% DMSO): > 100 µM; Kinetic solubility ([3]; 5% DMSO): > 500 µM; improved solubility respect to 41 ([3]; ratio to compound 41): > 50 fold; improved solubility respect to 62 ([3]; ratio to compound 62): > 5 fold
CC(C)(C)OC(=O)N[C@@H](CCN1C(=O)C[C@]1(Cc1ccccc1)C(=O)Nc1ccncc1)C(=O)Nc1ccncc1 [Compound 67a]	43.5 ± 9.8%	38.1 ± 6.3	36.3 ± 10.8	
CC(C)(C)OC(=O)N[C@@H](CCN1C(=O)C[C@@]1(Cc1ccccc1)C(=O)Nc1ccncc1)C(=O)Nc1ccncc1 [Compound 67b]	52.3 ± 7.6%	7.26 ± 1.9	31.7 ± 4.5	
N.N.N.N.N.N.N.N.N.N.N.N.N.N.[Cl-].[Cl-].[Cl-].[Cl-].[Cl-].[Cl-].[O-2].[O-2].[Ru+3].[Ru+3].[Ru+4] [Ruthenium red, reference compound]			100	IC50 ([2]; printed in the TRPM8 IC50 column, footnote a: evaluated in TRPV1): 0.015 µM
CC1CCC(C(C)C)C(O)C1 (stereo not drawn) [menthol, reference compound]				EC50 ([1]; agonist, in our assay): 137 µM

More lines, main results first:

% Block TRPM8 50 µM [1]	IC50 [1] [µM]	% Block TRPV1 50 µM [2] [%]	SMILES	also measured
49.2 ± 15.3%	50.2 ± 1.3		COC(=O)C(CCN1C(=O)CC1(Cc1ccccc1)C(=O)OC)NC(=O)OC(C)(C)C (stereo not drawn) [Compound 39]	
75%	6.8 ± 1.02	42.4 ± 5.3	COC(=O)C1(Cc2ccccc2)CC(=O)N1CCC(NC(=O)OC(C)(C)C)C(=O)OCc1ccccc1 (stereo not drawn) [Compound 40]	
82% and 82.2 ± 29.0%	6.2 ± 1.6	51.7 ± 15.4	COC(=O)C1(Cc2ccccc2)CC(=O)N1CCC(NC(=O)OCc1ccccc1)C(=O)OC(C)(C)C (stereo not drawn) [Compound 42]	
86.5±19.6%	1.7 ± 2.7	59.4 ± 10.5	CC(C)(C)OC(=O)NC(CCCN1C(=O)CC1(Cc1ccccc1)C(=O)OCc1ccccc1)C(=O)OCc1ccccc1 (stereo not drawn) [Compound 46]	reduction of TRPM8 blockade activity compared with homologue 41 ([1]; longer N-alkyl chain, 46 versus 41): up to 4 fold
94.9 ± 19.7%		49.8 ± 7.2	COC(=O)C(CCCN1C(=O)CC1(Cc1ccccc1)C(=O)OC(C)(C)C)NC(=O)OCc1ccccc1 (stereo not drawn) [Compound 47]	
41.7 ± 8.7%	74.1 ± 3.6	15.9 ± 4.3	CC(C)(C)OC(=O)NC(CCN1C(=O)CC1(Cc1ccccc1)C(=O)O)C(=O)O (stereo not drawn) [Compound 51]	
40.9 ± 10.3%	68.4 ± 8.5	20.6 ± 9.2	CC(C)(C)OC(=O)NC(CCCN1C(=O)CC1(Cc1ccccc1)C(=O)O)C(=O)O (stereo not drawn) [Compound 53]	
36.2 ± 22.3%	81.2 ± 4.8	19.4 ± 5.1	COC(=O)[C@H](CCCN1C(=O)CC1(Cc1ccccc1)C(=O)N[C@H](C)C(=O)OC)NC(=O)OCc1ccccc1 (stereo partly drawn) [Compound 59]	
71.3 ± 18.8%	32.6 ± 1.8		COC(=O)C(C)NC(=O)C1(Cc2ccccc2)CC(=O)N1CCCC(C(=O)OC)N(C)C(=O)OCc1ccccc1 (stereo not drawn) [Compound 60]	
78.3 ± 25.0%	27 ± 1.7		CNC(CCCN1C(=O)CC1(Cc1ccccc1)C(=O)NC(C)C(=O)OC)C(=O)OC (stereo not drawn) [Compound 61]	
100%	7 ± 1		Cc1cccc(COc2ccccc2C(=O)N(CCCN)Cc2cccs2)c1 [Compound 68, reference compound]	
